# What was measured:
# [1] = system: human epidermal keratinocyte cells; assay: LC3 puncta assay (confocal microscope); type: cell-based; conditions: 100 uM, 48 hours, anti-LC3 immunostaining; FIG. 7
# Experimental: As a specific experimental method, after 200 ul of poly-L-lysine (sigma) was put into each well of a 15 ul slide glass (Ibidi) and a reaction was carried out at room temperature for 30 minutes, followed by coating, human epidermal keratinocyte cells (Gibco BRL) were cultured and treated with respective test materials (rapamycin, compound represented by Structural Formula 1, and vitamin C) at a concentration of 100 uM. After the culturing for 48 hours was terminated, a medium was removed, and the cultured cells were fixed and blocked using formalin. Thereafter, the cells were labeled with anti-LC3 (Abfrontier) and anti-rabbit IgG-FITC (sigma), nucleus was stained with 4′,6′-diamidine-2′-phenylindole dihydrochloride (DAPI), and then, whether or not a puncta was formed in the cells was confirmed using a confocal microscope.
# [2] = system: human epidermal keratinocyte cells; assay: Cell protection effect against H2O2 oxidative stress (MTT); type: cell-based; conditions: then 1 mM H2O2 4 hours
# Experimental: Through the results in Examples 2 to 6, it was confirmed that expression of the anti-oxidant proteins and the autophagy-related proteins in cells was increased by the compound represented by Structural Formula 1, and thus, autophagy in the cells was activated. Therefore, in order to confirm whether or not activation of autophagy as described above may protect cells from cytotoxicity caused by ROS, follow-up research into a cell protection effect was conducted.
# As a specific experiment method, after treating human epidermal keratinocyte cells (Gibco BRL) with respective test materials (vitamin C and the compound represented by Structural Formula 1) at 0.1 mM or 1 mM, respectively, while culturing the cells in a 96-well culture dish, the cells were cultured for 24 hours or 48 hours, the resultant was washed, and 1 mM H2O2 was added thereto, and additional culturing was performed for 4 hours. Thereafter, each of the wells was washed, 10 ul of 3-(4,5-dimethylthiazol-2-yl)-2,5-diphenyltetrazolium bromide (MTT) dissolved in PBS (5 mg/ml) was added to each of the wells, and a reaction was carried out at 37° C. under a 5% CO2 condition. Thereafter, a supernatant was carefully removed, MTT formazan precipitated in the cells was dissolved in 100 ul of DMSO, and then absorbance at OD570 was measured using an enzyme-linked immunosorbent assay (ELISA) reader.
# [3] = ABTS radical scavenging assay (in-vitro anti-oxidant activity); type: biochemical; conditions: absorbance at OD734 after 30 minutes; FIG. 3
# Experimental: In order to measure in-vitro anti-oxidant activity of the compound represented by Structural Formula according to the present invention, ABTS radical scavenging assay was performed. When 2,2′-azino-bis-(3-ethylbenzothiazoline-6-sulfonic acid (ABTS) reacts with potassium persulfate, ABTS^+, which is an active cation, is formed, but in the case in which an anti-oxidant material is present in a test sample, ABTS^+ is removed by anti-oxidant activity, a greenish blue color, which is a peculiar color of ABTS^+, is decolorized, which may be measured as an absorbance value, thereby making it possible to evaluate the anti-oxidant activity.
# As a specific experimental method, after mixing ABTS diammonium salt (7 mM) and potassium persulfate (2.45 mM) with each other in distilled water in order to activate stabilized ABTS diammonium salt, a reaction was carried out at room temperature for 16 hours, thereby forming an ABTS radical. After diluting the resultant in a phosphate buffer solution (PBS) to prepare a reaction solution so that an OD734 value was about 1.5, the reaction solution was mixed with vitamin C (Vit C), pyrrolidone carboxylic acid (PCA), or the compound represented by Structural Formula 1 disclosed in the present invention to induce a reaction. After 30 minutes, an amount of the remaining activated ABTS radical was analyzed by measuring absorbance at OD734.
# [4] = system: human epidermal keratinocyte cells; assay: Intracellular ROS by DCFH-DA dye and FACS scanning after H2O2; type: cell-based; conditions: 100 uM pre-treatment for 48 hours, 10 uM H2O2 10 minutes, FIG. 4
# Experimental: In order to measure an intercellular anti-oxidant activity of the compound represented by Structural Formula 1 according to the present invention, an amount of intracellular reactive oxygen species (ROS) was measured using 6-carboxy-2′,7′-dichlorofluorescein diacetate (DCFH-DA) dye and fluorescence activated cell sorter (FACS) scanning.
# As a specific experimental method, human epidermal keratinocyte cells (Gibco BRL) were uniformly seeded onto a 600 culture dish (3×10^5 cells/dish) and cultured in an epilife medium (Gibco BRL) containing human keratinocyte growth supplement (HKGS, Gibco BRL) at 37° C. in a 5% CO2 incubator for 24 hours. Thereafter, the test materials (H2O2, vitamin C, and the compound represented by Structural Formula 1) were each dissolved in water at a concentration of 10 mM to prepare a concentrate, the prepared concentrate was diluted so as to have a concentration of 100 uM using the medium and put into a culture dish to treat the cells. Then, culturing was performed for 48 hours, and after the culturing was terminated, the medium was removed and the resultant was washed, thereby preparing a subsequent experiment. Next, 10 uM hydrogen peroxide was added thereto, the culturing was performed for 10 minutes, the resultant was washed again. […]
# [5] = system: genes associated with anti-oxidation and autophagy; assay: cDNA microarray of genes associated with anti-oxidation and autophagy; type: cell-based
# Experimental: (§1) In order to find a cause of increasing an intracellular anti-oxidant activity by treatment with the compound represented by Structural Formula 1, cDNA microarray was performed, thereby confirming that transcription of several kinds of important genes associated with anti-oxidation and autophagy was increased. Proteins for the selected genes were quantified by western blot.
# [6] = system: human dermal fibroblast cells; assay: Electron microscopy assay of autophagy structures; type: cell-based; conditions: 50 uM, 24 hours; FIGS. 8 and 9
# Experimental: As a specific experimental method, after treating human dermal fibroblast cells with the compound represented by Structural Formula 1 at a concentration of 50 uM while culturing the cells, the culturing was performed for 24 hours. After the culturing was terminated, the cells were fixed, a paraffin block was prepared, and then, cell images were analyzed using an electron microscope.
# An autophagy pathway starts from formation of an isolated precursor membrane having a cup shape, referred to as phagophore. The phagophore may form a double membrane […] known as autophagosome through initiation, nucleation, elongation, and closure processes. The autophagosome carries condensed proteins, organelles or pathogenic bacteria in damaged cells to lysosome in a captured state, and fused with lysosome to form autophagolysosome. The autophagolysosome decomposes the captured constituents in an acidic environment mediated by acid hydrolase.
# [7] = system: human epidermal keratinocyte cells; assay: Western blot of anti-oxidant and autophagy-related protein expression; type: cell-based; conditions: 50, 100, or 200 um, 48 hours
# Experimental: as §1
# As a specific experimental method, after treating human epidermal keratinocyte cells (Gibco BRL) with the compound represented by Structural Formula 1 at a concentration of 50, 100, or 200 um while culturing the cells in a 600 culture dish, culturing was performed for 48 hours. After the culturing was terminated, a medium was removed, a RIPA lysis buffer containing protease inhibitor cocktail (2 ug/ml aprotinin, 5 ug/ml leupeptin, 1 ug/ml pepstatin A, 1 mM PMSF, 5 mM EDTA and 1 mM EGTA) was added thereto, thereby obtaining an entire cell homogenate. Thereafter, total proteins were quantified through microBCA assay (SMART micro BCA protein assay kit, Intron biotechnology), the cell homogenate (10 to 20 ug) was loaded on a SDS-PAGE gel, and respective proteins were isolated by electrophoresis and moved to a nitrocellulose membrane. […]
SMILES,formation of LC3 puncta in the cells [1],"cell viability ([2]; 1 mM, pre-treatment for 24 hours, FIG. 10)","cell viability ([2]; 1 mM, pre-treatment for 48 hours, FIG. 11)","viability at 100 µM ([2]; Homo sapiens, Keratinocyte, 0.1 mM, pre-treatment for 24 hours, FIG. 10)",scavenging activity on the activated ABTS radical [3],amount of intracellular ROS formed by treatment with H2O2 [4],"cell viability ([2]; 0.1 mM or 1 mM, pre-treatment for 24 hours, FIG. 10)","cell viability ([2]; 0.1 mM or 1 mM, pre-treatment for 48 hours, FIG. 11)",transcription of genes associated with anti-oxidation and autophagy [5],number of autophagolysosome [6],number of autophagosome (increase by treatment) [6],number of phagophore [6],"expression of proteins having high anti-oxidant activities (Prx2 monomer, Prx3, HSP70 based Grp75, HSP90B1, EPHX2, stanniocalcin2) ([7]; FIG. 5)","expression of proteins important in autophagy and detoxification activities (BiP, FoxO1, sirtuin5) ([7]; FIG. 6)"
"O=C1O[C@H]([C@@H](O)CO)C(O)=C1O [vitamin C, reference compound]",not increased,rather deteriorated,rather deteriorated,~95%,concentration-dependent scavenging activity,not decreased,–,–,–,–,–,–,–,–
"O=C(O)CN(CCCC[C@H](NC(=O)[C@H](CCCCN(CC(=O)O)CC(=O)O)N(CC(=O)O)CC(=O)O)C(=O)O)CC(=O)O [2-[2,6-bis-(bis-carboxymethyl-amino)-hexanoyl-amino]-6-(bis-carboxymethyl-amino)-hexanoic acid]",a large amount of a LC puncta,–,–,–,concentration-dependent scavenging activity,almost disappeared,improved,improved,increased,significantly increased,≥ 2 times,significantly increased,increased,increased
